In paper PMC5908784, “Extracellular loops 2 and 3 of the calcitonin receptor selectively modify agonist binding and efficacy” (Biochemical Pharmacology, 2018):
Where a chain is given by its changes, count along the chain named. Where a SMILES comes first, the peptide text is derived from it. Bridges are numbered along the chain shown (N, C = ends).

Assays:
hCTR Y374A = target: T1, hCTR Y374A (Homo sapiens, UniProt P30988, Y374A); assay: Heterologous whole cell competition binding; settings: heterologous competition of 125I-sCT(8-32), whole cells, mean ± S.E.M., SEM
T1 construct: c-Myc (N); expressed in transfected cells
T1 sequence (P30988 25-474 Y374A): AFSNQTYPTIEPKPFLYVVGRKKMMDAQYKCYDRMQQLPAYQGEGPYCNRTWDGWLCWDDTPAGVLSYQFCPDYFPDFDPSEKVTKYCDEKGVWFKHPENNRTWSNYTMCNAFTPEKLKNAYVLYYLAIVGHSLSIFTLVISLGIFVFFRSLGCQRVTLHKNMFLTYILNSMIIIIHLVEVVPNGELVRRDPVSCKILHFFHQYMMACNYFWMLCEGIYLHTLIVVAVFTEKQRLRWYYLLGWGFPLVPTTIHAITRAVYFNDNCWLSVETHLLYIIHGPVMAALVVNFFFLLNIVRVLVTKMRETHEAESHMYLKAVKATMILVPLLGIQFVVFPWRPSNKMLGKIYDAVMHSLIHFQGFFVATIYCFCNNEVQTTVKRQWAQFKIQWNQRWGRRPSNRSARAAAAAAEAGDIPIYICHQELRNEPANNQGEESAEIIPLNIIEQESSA
Outline: (§1)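 Steps: overnight co-incubation of cells, tracer and test ligand; washout of unbound label; gamma counting; Cheng-Prusoff conversion to pKi.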

hCTR F359A = target: T2, hCTR F359A (Homo sapiens, UniProt P30988, F359A); assay: Heterologous whole cell competition binding; settings: heterologous competition of 125I-sCT(8-32), whole cells, mean ± S.E.M., SEM
T2 construct: expressed in transfected cells
T2 sequence (P30988 25-474 F359A): T1 sequence (P30988 25-474 Y374A) with F335A, A350Y
Outline: as §1

hCTR L297A = target: T3, hCTR L297A (Homo sapiens, UniProt P30988, L297A); assay: Heterologous whole cell competition binding; settings: heterologous competition of 125I-sCT(8-32), whole cells, mean ± S.E.M., SEM
T3 construct: c-Myc (N); expressed in transfected cells
T3 sequence (P30988 25-474 L297A): T1 sequence (P30988 25-474 Y374A) with L273A, A350Y
Outline: as §1

hCTR N365A = target: T4, hCTR N365A (Homo sapiens, UniProt P30988, N365A); assay: Heterologous whole cell competition binding; settings: heterologous competition of 125I-sCT(8-32), whole cells, mean ± S.E.M., SEM
T4 construct: c-Myc (N); expressed in transfected cells
T4 sequence (P30988 25-474 N365A): T1 sequence (P30988 25-474 Y374A) with N341A, A350Y
Outline: as §1

hCTR C289A = target: T5, hCTR C289A (Homo sapiens, UniProt P30988, C289A); assay: IP1 accumulation; assay type: cell-based; settings: IP1 maximal response, mean ± S.E.M., SEM
T5 construct: c-Myc (N); expressed in transfected cells
T5 sequence (P30988 25-474 C289A): T1 sequence (P30988 25-474 Y374A) with C265A, A350Y
Outline: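 HTRF IP-One readout of IP1 after 60 min ligand stimulation (LiCl present), cells seeded overnight. Normalized to 100 μM ATP max response. EC50/Emax via 3-parameter logistic curve fit.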

Row | Ki (hCTR Y374A) [nM] | Ki (hCTR F359A) [nM] | Ki (hCTR L297A) [nM] | Ki (hCTR N365A) [nM] | Compound | Emax (hCTR C289A) [%]
1 | 5.89 | 74.1 | 15.5 | 2.09 | CSCC[C@H](NC(=O)CNC(=O)[C@H](CO)NC(=O)[C@H](Cc1ccccc1)NC(=O)[C@H](CCCNC(=N)N)NC(=O)[C@H](Cc1c[nH]cn1)NC(=O)[C@H](Cc1ccccc1)NC(=O)[C@H](CC(N)=O)NC(=O)[C@H](CC(N)=O)NC(=O)[C@H](CC(C)C)NC(=O)[C@H](CC(N)=O)NC(=O)[C@H](CCCNC(=N)N)NC(=O)[C@H](Cc1c[nH]c2ccccc12)NC(=O)[C@H](Cc1ccc(O)cc1)NC(=O)[C@H](C)NC(=O)[C@H](CO)NC(=O)[C@H](CC(C)C)NC(=O)[C@@H](NC(=O)[C@@H]1CSSC[C@H](N)C(=O)N[C@@H](CO)C(=O)N[C@@H](CC(N)=O)C(=O)N[C@@H](CC(C)C)C(=O)N[C@@H](CO)C(=O)N[C@@H]([C@@H](C)O)C(=O)N1)C(C)C)C(=O)NCC(=O)N[C@@H](Cc1ccccc1)C(=O)NCC(=O)N1CCC[C@H]1C(=O)N[C@@H](CCC(=O)O)C(=O)N[C@H](C(=O)N1CCC[C@H]1C(N)=O)[C@@H](C)O [pCT] (H-CSNLSTCVLSAYWRNLNNFHRFSGMGFGPETP-NH2; disulfide 1-7) | 
2 |  |  |  |  | CC(C)C[C@H](NC(=O)[C@H](CCCCN)NC(=O)CNC(=O)[C@H](CC(C)C)NC(=O)[C@@H](NC(=O)[C@@H]1CSSC[C@H](N)C(=O)N[C@@H](CO)C(=O)N[C@@H](CC(N)=O)C(=O)N[C@@H](CC(C)C)C(=O)N[C@@H](CO)C(=O)N[C@@H]([C@@H](C)O)C(=O)N1)C(C)C)C(=O)N[C@@H](CO)C(=O)N[C@@H](CCC(N)=O)C(=O)N[C@@H](CCC(=O)O)C(=O)N[C@@H](CC(C)C)C(=O)N[C@@H](Cc1c[nH]cn1)C(=O)N[C@@H](CCCCN)C(=O)N[C@@H](CC(C)C)C(=O)N[C@@H](CCC(N)=O)C(=O)N[C@H](C(=O)N[C@@H](Cc1ccc(O)cc1)C(=O)N1CCC[C@H]1C(=O)N[C@@H](CCCNC(=N)N)C(=O)N[C@H](C(=O)N[C@@H](CC(N)=O)C(=O)N[C@H](C(=O)NCC(=O)N[C@@H](CO)C(=O)NCC(=O)N[C@H](C(=O)N1CCC[C@H]1C(N)=O)[C@@H](C)O)[C@@H](C)O)[C@@H](C)O)[C@@H](C)O [sCT] | 42 ± 4
